From US4935418A, “Medical compositions of 1-aryloxy-2,3,4,5-tetrahydro-3-benzazepines and use thereof” (Hoechst-Roussel Pharmaceuticals Inc., priority 1988, dated 1990) come the findings set out here.

Structures can show the parent of a compound that is named as a salt.

What all share (format): in vivo
The test system of test [1] is 5-hydroxytryptophan induced seizures in rats. The experiment in a line: potentiation of 5-hydroxytryptophan induced seizures in rats. To be noted: Rattus norvegicus, ip, intraperitoneal, read-out: ED50 (potentiation of 5-hydroxytryptophan induced seizures in 50% of the animals). From the text:
The antidepressant activities of some of the compounds of the invention expressed in terms of a potentiation of 5-hydroxytryptophan induced seizures in 50% of the animals is given in Table II.

Test [2] has as its system spontaneous hypertensive rat. The experiment in a line: antihypertensive activity in the spontaneous hypertensive rat, indirect tail cuff method. The conditions noted are these: 50 mg/kg of body weight, oral, three days, measured on third day. On the procedure: In this procedure a group of five animals are treated orally for three days with the test compound in relation to the control group of the same number. The drop in blood pressure is measured on the third day following administration.

The subject of test [3] is 2-phenyl-1,4-benzoquinone-induced writhing in mice. Briefly: 2-phenyl-1,4-benzoquinone-induced writhing test in mice. The conditions noted are these: Mus musculus, sc. From the text:
The compounds of the invention are also useful as analgesic agents due to their ability to alleviate pain in mammals. […] Exptl. Biol. Med., 95, 729 (1957)].
In general terms: In writhing tests, fewer writhes than in controls are read as antinociception.

The test system of test [4] is tetrabenazine induced ptosis in mice. Briefly: inhibition of tetrabenazine induced ptosis in mice. To be noted: Mus musculus, oral, read-out: ED50 (50% inhibition of tetrabenazine-induced ptosis). From the text:
The antidepressant activities of some of the compounds of the invention expressed in terms of a 50% inhibition of ptosis of tetrabenazine-induced ptosis in mice is given in Table I.

Usually ED50 stands for the midpoint of the dose-response relation. With `COc1cc2c(cc1OC)C(Oc1ccc(F)cc1)CNCC2.O=C(O)/C=C\C(=O)O` (centres unmarked) [7,8-Dimethoxy-1-(4-fluorophenoxy)-2,3,4,5-tetrahydro-3-benzazepine maleate], in test [1], the ED50 came to 2.9 mg/kg.
Take `CNCCN1CCc2ccccc2C(Oc2ccc(C(F)(F)F)cc2)C1.O=C(O)C(=O)O.O=C(O)C(=O)O` (centres unmarked) [3-(2-Methylaminoethyl)-2,3,4,5-tetrahydro-1-(p-trifluoromethylphenoxy)-3-benzazepine dioxalate]: in test [2], the “Decrease in Blood Pressure (mean arterial)” value (“Decrease in Blood Pressure” for short) stood at 33 mm HG.
On to `Clc1cccc(OC2CN(CC3CC3)CCc3ccccc32)c1` (centres unmarked) [1-(m-Chlorophenoxy)-3-cyclopropylmethyl-2,3,4,5-tetrahydro-3-benzazepine oxalate], for which the inhibition in vivo at 25 mg/kg in test [3] (subcutaneous, mice) came out at 66%.
On to `NCCN1CCc2ccccc2C(Oc2ccc(C(F)(F)F)cc2)C1.O=C(O)C(=O)O.O=C(O)C(=O)O` (centres unmarked) [3-(2-Aminoethyl)-2,3,4,5-tetrahydro-1-(p-trifluoromethylphenoxy)-3-benzazepine dioxalate], for which the “Decrease in Blood Pressure” value in test [2] turned out to be 61 mm HG.
`FC(F)(F)c1ccc(OC2CNCCc3ccccc32)cc1.O=C(O)C(=O)O` (centres unmarked) [1-(p-Trifluoromethylphenoxy)-2,3,4,5-tetrahydro-3-benzazepine oxalate]: in test [1], the ED50 was found to be 2.9 mg/kg.
Still for that read-out and setting: in the case of `CCCN1CCc2cc(OC)c(OC)cc2C(Oc2ccccc2)C1.O=C(O)C(=O)O` (centres unmarked) [7,8-Dimethoxy-1-phenoxy-3-(n-propyl)-2,3,4,5-tetrahydro-3-benzazepine oxalate] it was 0.7 mg/kg.
With `CNCCCN1c2ccccc2CCc2ccccc21` [desipramine, reference compound], the ED50 in test [4] was found to be 2.3 mg/kg.
The molecule `COc1cc2c(cc1OC)C(Oc1ccc(C(F)(F)F)cc1)CN(C)CC2.Cl` (centres unmarked) [7,8-Dimethoxy-3-methyl-2,3,4,5-tetrahydro-1-(p-trifluoromethylphenoxy)-3-benzazepine hydrochloride] displayed an inhibition in vivo at 5.7 mg/kg in test [3] (subcutaneous, 5.7 mg/kg, mice) of 50%. Moreover, the “Decrease in Blood Pressure” value in test [2] is given as 43 mm HG.
Turning to `CC(CN)N1CCc2ccccc2C(Oc2ccc(C(F)(F)F)cc2)C1` (centres unmarked) [3-(2-Amino-1-methyl)ethyl-2,3,4,5-tetrahydro-1-(p-trifluoromethylphenoxy)-3-benzazepine dioxalate], the “Decrease in Blood Pressure” value in test [2] is 51 mm HG.
As to `COc1cc2c(cc1OC)C(Oc1ccccc1)CN(C)CC2.O=C(O)C(=O)O` (centres unmarked) [7,8-Dimethoxy-3-methyl-1-phenoxy-2,3,4,5-tetrahydro-3-benzazepine oxalate], the inhibition in vivo at 20 mg/kg in test [3] (subcutaneous, mice) was 58%. The ED50 amounted to 3.8 mg/kg in test [4] and 7.5 mg/kg in test [1].
Take `COc1cc2c(cc1OC)C(Oc1ccc(C(F)(F)F)cc1)CNCC2` (centres unmarked) [7,8-Dimethoxy-2,3,4,5-tetrahydro-1-(p-trifluoromethylphenoxy)-3-benzazepineoxalate]: the “Decrease in Blood Pressure” value in test [2] turned out to be 49 mm HG.
With `COc1cc2c(cc1OC)C(Oc1ccccc1)CNCC2.O=C(O)C(=O)O` (centres unmarked) [7,8-Dimethoxy-1-phenoxy-2,3,4,5-tetrahydro-3-benzazepine oxalate], the ED50 in test [4] came out at 3.7 mg/kg; in test [1] it was 0.85 mg/kg.
Turning to `NCCN1CCc2ccccc2C(Oc2cccc(Cl)c2)C1.O=C(O)C(=O)O.O=C(O)C(=O)O` (centres unmarked) [3-(2-Aminoethyl)-1-(m-chlorophenoxy)-2,3,4,5-tetrahydro-3-benzazepine dioxalate], the ED50 in test [4] is 7.5 mg/kg.
In test [3] (subcutaneous, mice), `Br.COc1ccc(OC2CN(C)CCc3ccccc32)cc1` (centres unmarked) [1-(p-Methoxyphenoxy)-3-methyl-2,3,4,5-tetrhydro-3-benzazepine hydrobromide] registered an inhibition in vivo at 20 mg/kg of 46%. Besides, in test [2], the “Decrease in Blood Pressure” value amounted to 48 mm HG.
For `CCC(=O)O[C@](Cc1ccccc1)(c1ccccc1)[C@H](C)CN(C)C` [propoxyphene, reference compound], the inhibition in vivo at 3.9 mg/kg in test [3] (read-out: Inhibition of Writhing) worked out at 50%.
Consider `NCCCN1CCc2ccccc2C(Oc2ccc(C(F)(F)F)cc2)C1` (centres unmarked) [3-(3-Aminopropyl)-2,3,4,5-tetrahydro-1-(p-trifluoromethylphenoxy)-3-benzazepine dimaleate], for which the inhibition in vivo at 8.2 mg/kg in test [3] (subcutaneous, 8.2 mg/kg, mice) stood at 50%.
Take `COc1ccc(OC2CN(C)CCc3cc(OC)c(OC)cc32)cc1` (centres unmarked) [7,8-Dimethoxy-1-(4-methoxyphenoxy)-3-methyl-2,3,4,5-tetrahydro-3-benzazepine hydrochloride]: in test [3] (subcutaneous, 7.6 mg/kg, mice), the inhibition in vivo at 7.6 mg/kg was 50%.
Take `COc1ccc(OC2CNCCc3cc(OC)c(OC)cc32)cc1.O=C(O)/C=C\C(=O)O` (centres unmarked) [7,8-Dimethoxy-1-(4-methoxyphenoxy)-2,3,4,5-tetrahydro-3-benzazepine maleate]: in test [1], the ED50 was 0.9 mg/kg.
`Br.Cc1ccc(OC2CN(C)CCc3ccccc32)cc1` (centres unmarked) [3-Methyl-1-(p-methylphenoxy)-2,3,4,5-tetrahydro-3-benzazepine Hydrobromide]: the “Decrease in Blood Pressure” value in test [2] was found to be 35 mm HG.
The same measure, in the same setting: the result for `N=C(N)NCCN1CCCCCCC1` [guanethidine, reference compound] reads 20 mm HG.
For `COc1cc2c(cc1OC)C(Oc1ccc(C)cc1)CN(C)CC2` (centres unmarked) [7,8-Dimethoxy-3-methyl-1-(4-methylphenoxy)-2,3,4,5-tetrahydro-3-benzazepinemaleate], in test [1], the ED50 amounted to 0.9 mg/kg.
`Clc1cccc(OC2CN(CCc3ccccc3)CCc3ccccc32)c1` (centres unmarked) [1-(m-Chlorophenoxy)-3-(2-phenylethyl)-2,3,4,5-tetrahydro-3-benzazepine oxalate] registered an inhibition in vivo at 25 mg/kg in test [3] (subcutaneous, mice) of 42%.
On to `COc1cc2c(cc1OC)C(Oc1cccc(Cl)c1)CNCC2.O=C(O)C(=O)O` (centres unmarked) [1-(m-Chlorophenoxy)-7,8-dimethoxy-2,3,4,5-tetrahydro-3-benzazepine oxalate], for which the figures for the ED50 in test [4] and in test [1] were 4.2 mg/kg and 1.1 mg/kg, respectively.
